Tests used:
VHL [1] = molecular target: T1, VHL (Homo sapiens, UniProt P40337); experiment: VHL HEK-293 BRET Assay (VHL NanoBRET Target Engagement Assay); assay type: cell-based; conditions: for IC50: HEK 293 RT VHL-NanoLuc stable cells, 1 uM tracer, 2 hours, geometric mean where more than one measurement, read-out: VHL binding in cells (HEK293 nanoBRET); for Ratio cell permeability shift: ratio not defined
T1 construct: expressed in transfected cells
Protocol: (§1) The VHL NanoBRET™ Target Engagement Assay analyzes the apparent affinity of test compounds for VHL in cells by competitive displacement of a VHL NanoBRET™ tracer reversibly bound to a NanoLuc® VHL fusion protein stably expressed in the cells.
(§2) 50 nL of control compound (10 mM; parental unlabeled VHL antagonist; see structure below) and 50 nL of DMSO (negative control) were dispensed into the appropriate control wells. DMSO was backfilled to a final volume of 50 nL as required. […] Max Signal control wells consisted of DMSO only treated wells. Minimum Signal control wells contained of 10 uM parental unlabeled VHL antagonist (control compound—see structure below). […] Background Signal control wells were prepared without tracer for background correction steps.
(§3) The raw BRET ratio values were calculated by dividing the acceptor emission value (610 nm) by the donor emission value (460 nm) for each sample. To correct for background, the BRET ratio in the absence of tracer (average of no-tracer control samples) was subtracted from the BRET ratio of each sample. Raw BRET units were converted to milliBRET units (mBU) by multiplying each raw BRET value by 1,000. The normalized NanoBRET™ signal was calculated relative to the Max Signal control wells (DMSO treated control wells) and the Minimum Signal control wells. Percentage inhibition was calculated relative to the Minimum Signal control and Maximum Signal control wells. IC50 values were derived by four parameter curve fitting using the Robust method.

VHL [2] = molecular target: T1, VHL; experiment: VHL nanoBRET (+ Digitonin); assay type: cell-based
Protocol: as §1, §2, §3

T1 sequence (P40337 whole entry): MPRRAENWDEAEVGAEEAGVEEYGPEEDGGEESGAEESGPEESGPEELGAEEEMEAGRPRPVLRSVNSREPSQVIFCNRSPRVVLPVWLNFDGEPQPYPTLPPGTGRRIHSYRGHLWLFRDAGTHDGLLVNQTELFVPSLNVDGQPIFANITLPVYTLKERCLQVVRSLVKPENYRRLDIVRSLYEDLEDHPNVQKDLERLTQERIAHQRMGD

SMILES | IC50 (VHL [1]) | Ratio cell permeability shift (VHL [1]) | EC50 (VHL [2])
NC(=O)[C@@H](Cc1ccc(-c2ccccc2)cc1)NC(=O)[C@@H]1C[C@@H](O)CN1C(=O)[C@H](C1CCC1)n1cc(C2CC2)nn1 [Example S4, (2S,4R)—N—((R)-3-([1,1′-biphenyl]-4-yl)-1-amino-1-oxopropan-2-yl)-1-((S)-2-cyclobutyl-2-(4-cyclopropyl-1H-1,2,3-triazol-1-yl)acetyl)-4-hydroxypyrrolidine-2-carboxamide] | 190 nM | 0.96 | 200 nM
CC[C@H](C)[C@@H](C(=O)N1C[C@H](O)C[C@H]1C(=O)N[C@H](Cc1ccc(-c2ccccc2)cc1)C(N)=O)n1cc(C2CC2)nn1 [Example S5, (2S,4R)—N—((R)-3-([1,1′-biphenyl]-4-yl)-1-amino-1-oxopropan-2-yl)-1-((2S,3S)-2-(4-cyclopropyl-1H-1,2,3-triazol-1-yl)-3-methylpentanoyl)-4-hydroxypyrrolidine-2-carboxamide] | 130 nM | 0.77 | 170 nM
CCC(C)(C)[C@@H](C(=O)N1C[C@H](O)C[C@H]1C(=O)N[C@H](Cc1ccc(-c2ccccc2)cc1)C(N)=O)n1cc(C2CC2)nn1 [Example S6, (2S,4R)—N—((R)-3-([1,1′-biphenyl]-4-yl)-1-amino-1-oxopropan-2-yl)-1-((S)-2-(4-cyclopropyl-1H-1,2,3-triazol-1-yl)-3,3-dimethylpentanoyl)-4-hydroxypyrrolidine-2-carboxamide] | 100 nM | 0.76 | 140 nM
C=CC(C)(C)[C@@H](C(=O)N1C[C@H](O)C[C@H]1C(=O)N[C@H](Cc1ccc(-c2ccccc2)cc1)C(N)=O)n1cc(C2CC2)nn1 [Example S7, (2S,4R)—N—((R)-3-([1,1′-biphenyl]-4-yl)-1-amino-1-oxopropan-2-yl)-1-((S)-2-(4-cyclopropyl-1H-1,2,3-triazol-1-yl)-3,3-dimethylpent-4-enoyl)-4-hydroxypyrrolidine-2-carboxamide] | 110 nM | 0.68 | 160 nM
NC(=O)[C@@H](Cc1ccc(-c2ccccc2)cc1)NC(=O)[C@@H]1C[C@@H](O)CN1C(=O)[C@@H](n1cc(C2CC2)nn1)C12CC3CC(CC(C3)C1)C2 [Example S8, (2S,4R)—N—((R)-3-([1,1′-biphenyl]-4-yl)-1-amino-1-oxopropan-2-yl)-1-((2S)-2-(adamantan-1-yl)-2-(4-cyclopropyl-1H-1,2,3-triazol-1-yl)acetyl)-4-hydroxypyrrolidine-2-carboxamide] | 120 nM | 0.73 | 160 nM
CC(=O)NCC1(c2cn([C@@H](C(=O)N3C[C@H](O)C[C@H]3C(=O)N[C@H](Cc3ccc(-c4ccccc4)cc3)C(N)=O)C(C)(C)C)nn2)CC1 [Example S12, (2S,4R)—N—((R)-3-([1,1′-biphenyl]-4-yl)-1-amino-1-oxopropan-2-yl)-1-((R)-2-(4-(1-(acetamidomethyl)cyclopropyl)-1H-1,2,3-triazol-1-yl)-3,3-dimethylbutanoyl)-4-hydroxypyrrolidine-2-carboxamide] | > 100000 nM | – | 24500 nM
CC(=O)NCC1(c2cn([C@H](C(=O)N3C[C@H](O)C[C@H]3C(=O)N[C@H](Cc3ccc(-c4ccccc4)cc3)C(N)=O)C(C)(C)C)nn2)CC1 [Example S13, (2S,4R)—N—((R)-3-([1,1′-biphenyl]-4-yl)-1-amino-1-oxopropan-2-yl)-1-((S)-2-(4-(1-(acetamidomethyl)cyclopropyl)-1H-1,2,3-triazol-1-yl)-3,3-dimethylbutanoyl)-4-hydroxypyrrolidine-2-carboxamide] | 2270 nM | 10.22 | 220 nM
CC(C)(C)[C@@H](C(=O)N1C[C@H](O)C[C@H]1C(=O)N[C@H](Cc1ccc(-c2ccccc2)cc1)C(N)=O)n1cc(C(=O)O)nn1 [Example S15, 1-((S)-1-((2S,4R)-2-(((R)-3-([1,1′-biphenyl]-4-yl)-1-amino-1-oxopropan-2-yl)carbamoyl)-4-hydroxypyrrolidin-1-yl)-3,3-dimethyl-1-oxobutan-2-yl)-1H-1,2,3-triazole-4-carboxylic acid] | 69800 nM | 115.18 | 610 nM
CC(C)(C)[C@@H](C(=O)N1C[C@H](O)C[C@H]1C(=O)N[C@H](Cc1ccc(-c2ccccc2)cc1)C(N)=O)n1cc(C(N)=O)nn1 [Example S16, 1-((S)-1-((2S,4R)-2-(((R)-3-([1,1′-biphenyl]-4-yl)-1-amino-1-oxopropan-2-yl)carbamoyl)-4-hydroxypyrrolidin-1-yl)-3,3-dimethyl-1-oxobutan-2-yl)-1H-1,2,3-triazole-4-carboxamide] | 3310 nM | 8.30 | 400 nM
Cc1ncsc1-c1ccc(C(C)NC(=O)[C@@H]2C[C@@H](O)CN2C(=O)[C@@H](n2cc(C3CC3)nn2)C23CC4CC(CC(C4)C2)C3)c(Cl)c1 (stereo partly drawn) [Example S23, (2S,4R)-1-((2S)-2-(adamantan-1-yl)-2-(4-cyclopropyl-1H-1,2,3-triazol-1-yl)acetyl)-N-(1-(2-chloro-4-(4-methylthiazol-5-yl)phenyl)ethyl)-4-hydroxypyrrolidine-2-carboxamide] | 20 nM | 0.42 | 40 nM
Cc1ncsc1-c1ccc(CNC(=O)[C@@H]2C[C@@H](O)CN2C(=O)[C@@H](n2cc(C3(C(F)(F)F)CC3)nn2)C(C)(C)C)cc1 [Example S28, (2S,4R)-1-((S)-3,3-dimethyl-2-(4-(1-(trifluoromethyl)cyclopropyl)-1H-1,2,3-triazol-1-yl)butanoyl)-4-hydroxy-N-(4-(4-methylthiazol-5-yl)benzyl)pyrrolidine-2-carboxamide] | 40 nM | 0.98 | 40 nM

These reach a lower EC50 (VHL [2]). Values come first.

IC50 (VHL [1]) | Ratio cell permeability shift (VHL [1]) | EC50 (VHL [2]) | SMILES
10 nM | 0.85 | 10 nM | Cc1ncsc1-c1ccc([C@H](C)NC(=O)[C@@H]2C[C@@H](O)CN2C(=O)[C@@H](n2cc(C3CC3)nn2)C(C)(C)C)cc1 [Example S18, (2S,4R)-1-((S)-2-(4-cyclopropyl-1H-1,2,3-triazol-1-yl)-3,3-dimethylbutanoyl)-4-hydroxy-N—((S)-1-(4-(4-methylthiazol-5-yl)phenyl)ethyl)pyrrolidine-2-carboxamide]
< 5 nM | ~1 | < 5 nM | Cc1ncsc1-c1ccc([C@H](C)NC(=O)[C@@H]2C[C@@H](O)CN2C(=O)[C@H](C2CCCCC2)n2cc(C3CC3)nn2)cc1 [Example S19, (2S,4R)-1-((S)-2-cyclohexyl-2-(4-cyclopropyl-1H-1,2,3-triazol-1-yl)acetyl)-4-hydroxy-N—((S)-1-(4-(4-methylthiazol-5-yl)phenyl)ethyl)pyrrolidine-2-carboxamide]
– | 0.54 | 10 nM | Cc1ncsc1-c1ccc([C@H](C)NC(=O)[C@@H]2C[C@@H](O)CN2C(=O)[C@@H](n2cc(C3CC3)nn2)C23CC4CC(CC(C4)C2)C3)cc1 [Example S20, (2S,4R)-1-((2S)-2-(adamantan-1-yl)-2-(4-cyclopropyl-1H-1,2,3-triazol-1-yl)acetyl)-4-hydroxy-N—((S)-1-(4-(4-methylthiazol-5-yl)phenyl)ethyl)pyrrolidine-2-carboxamide]
– | 0.67 | 10 nM | CCC(C)(C)[C@@H](C(=O)N1C[C@H](O)C[C@H]1C(=O)N[C@@H](C)c1ccc(-c2scnc2C)cc1)n1cc(C2CC2)nn1 [Example S21, (2S,4R)-1-((S)-2-(4-cyclopropyl-1H-1,2,3-triazol-1-yl)-3,3-dimethylpentanoyl)-4-hydroxy-N—((S)-1-(4-(4-methylthiazol-5-yl)phenyl)ethyl)pyrrolidine-2-carboxamide]
10 nM | 0.72 | 10 nM | Cc1ncsc1-c1ccc(C(C)NC(=O)[C@@H]2C[C@@H](O)CN2C(=O)[C@@H](n2cc(C3CC3)nn2)C(C)(C)C)c(Cl)c1 (stereo partly drawn) [Example S22, (2S,4R)—N-(1-(2-chloro-4-(4-methylthiazol-5-yl)phenyl)ethyl)-1-((S)-2-(4-cyclopropyl-1H-1,2,3-triazol-1-yl)-3,3-dimethylbutanoyl)-4-hydroxypyrrolidine-2-carboxamide]
20 nM | 1.02 | 20 nM | Cc1ncsc1-c1ccc(CNC(=O)[C@@H]2C[C@@H](O)CN2C(=O)[C@@H](n2cc(C3CC3)nn2)C(C)(C)c2ccccc2)cc1 [Example S26, (2S,4R)-1-((S)-2-(4-cyclopropyl-1H-1,2,3-triazol-1-yl)-3-methyl-3-phenylbutanoyl)-4-hydroxy-N-(4-(4-methylthiazol-5-yl)benzyl)pyrrolidine-2-carboxamide]
10 nM | 1.04 | 10 nM | Cc1ncsc1-c1ccc(CNC(=O)[C@@H]2C[C@@H](O)CN2C(=O)[C@@H](n2cc(C3(C)CC3)nn2)C(C)(C)C)cc1 [Example S29, (2S,4R)-1-((S)-3,3-dimethyl-2-(4-(1-methylcyclopropyl)-1H-1,2,3-triazol-1-yl)butanoyl)-4-hydroxy-N-(4-(4-methylthiazol-5-yl)benzyl)pyrrolidine-2-carboxamide]
